From the Kinase Knowledgebase extract (Sharma et al. 2016)
pIC50: −log10 of the molar value.

Target: EGFR (human) (UniProt P00533)
Conditions: mda-mb-231

Sequence of EGFR (human) (P00533 whole entry, looked up): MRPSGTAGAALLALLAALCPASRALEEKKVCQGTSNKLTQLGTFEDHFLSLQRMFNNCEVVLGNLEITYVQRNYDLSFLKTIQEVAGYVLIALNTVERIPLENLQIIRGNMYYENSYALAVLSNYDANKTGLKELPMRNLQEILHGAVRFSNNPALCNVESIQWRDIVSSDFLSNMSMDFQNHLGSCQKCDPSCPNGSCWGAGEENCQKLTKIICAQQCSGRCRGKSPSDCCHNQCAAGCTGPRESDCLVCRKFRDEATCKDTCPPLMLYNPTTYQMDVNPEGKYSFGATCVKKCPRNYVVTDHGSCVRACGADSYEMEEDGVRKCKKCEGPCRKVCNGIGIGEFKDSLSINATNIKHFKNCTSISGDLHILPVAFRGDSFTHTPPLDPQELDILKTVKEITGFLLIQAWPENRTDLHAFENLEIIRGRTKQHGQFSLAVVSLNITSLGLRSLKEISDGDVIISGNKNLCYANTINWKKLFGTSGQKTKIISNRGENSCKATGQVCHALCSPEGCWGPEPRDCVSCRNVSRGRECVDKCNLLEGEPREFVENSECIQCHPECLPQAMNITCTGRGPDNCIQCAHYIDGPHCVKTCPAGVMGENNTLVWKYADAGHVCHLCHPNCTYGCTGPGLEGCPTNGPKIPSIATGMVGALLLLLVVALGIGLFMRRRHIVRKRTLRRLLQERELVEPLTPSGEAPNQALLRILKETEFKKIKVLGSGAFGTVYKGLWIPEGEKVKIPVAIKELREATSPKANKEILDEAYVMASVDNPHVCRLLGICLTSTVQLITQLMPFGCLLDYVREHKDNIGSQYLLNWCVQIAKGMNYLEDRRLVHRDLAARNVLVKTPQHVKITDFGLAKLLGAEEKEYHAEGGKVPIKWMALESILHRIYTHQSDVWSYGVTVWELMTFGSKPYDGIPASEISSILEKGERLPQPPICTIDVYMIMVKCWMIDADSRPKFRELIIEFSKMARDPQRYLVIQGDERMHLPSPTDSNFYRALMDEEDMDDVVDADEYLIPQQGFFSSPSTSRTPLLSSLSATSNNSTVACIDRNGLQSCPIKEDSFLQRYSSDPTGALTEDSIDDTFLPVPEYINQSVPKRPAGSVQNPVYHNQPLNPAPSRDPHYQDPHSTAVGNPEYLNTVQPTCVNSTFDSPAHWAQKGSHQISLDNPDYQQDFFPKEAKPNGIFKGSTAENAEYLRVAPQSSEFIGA

pIC50	SMILES
4.55	C/C(O)=C(/C#N)C(=O)Nc1ccc(OC(F)(F)F)cc1
4.01	Cc1oncc1C(=O)Nc1ccc(C(F)(F)F)cc1
